Reference: the supplement of paper PMC10307832

Columns and labels:
Experiment in all cases: relative viability (nuclei count vs DMSO), 5 days (fraction); higher = more cells survive
MK-2206 + Trametinib = compound: NC1(c2ccc(-c3nc4ccn5c(=O)[nH]nc5c4cc3-c3ccccc3)cc2)CCC1 [MK-2206] + CC(=O)Nc1cccc(-n2c(=O)n(C3CC3)c(=O)c3c(Nc4ccc(I)cc4F)n(C)c(=O)c(C)c32)c1 [Trametinib] (partner 0.02 µM)
In short: (§1)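 One day after seeding in 1536-well plates, lung cancer cell lines were dosed by pin tool. Dosing was either single-drug or a fixed anchor-drug dose plus five library-drug doses (not always all listed) in √10 steps. After 5 days, nuclei were stained in one fix-and-stain step and counted on 4× images, and relative viability is the nuclei count of treated wells over that of vehicle wells, given as the median of duplicate plates.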

MK-2206 + Tozasertib = compound: NC1(c2ccc(-c3nc4ccn5c(=O)[nH]nc5c4cc3-c3ccccc3)cc2)CCC1 [MK-2206] + Cc1cc(Nc2cc(N3CCN(C)CC3)nc(Sc3ccc(NC(=O)C4CC4)cc3)n2)n[nH]1 [Tozasertib] (partner 0.1 µM)
In short: as §1

Pictilisib + Decitabine = compound: CS(=O)(=O)N1CCN(Cc2cc3nc(-c4cccc5[nH]ncc45)nc(N4CCOCC4)c3s2)CC1 [Pictilisib] + Nc1ncn([C@H]2C[C@H](O)[C@@H](CO)O2)c(=O)n1 [Decitabine] (partner 2 µM)
In short: as §1

MK-2206 + Phenformin = compound: NC1(c2ccc(-c3nc4ccn5c(=O)[nH]nc5c4cc3-c3ccccc3)cc2)CCC1 [MK-2206] + N=C(N)NC(=N)NCCc1ccccc1 [Phenformin] (partner 250 µM)
In short: as §1

MK-2206 + Lapatinib = compound: NC1(c2ccc(-c3nc4ccn5c(=O)[nH]nc5c4cc3-c3ccccc3)cc2)CCC1 [MK-2206] + CS(=O)(=O)CCNCc1ccc(-c2ccc3ncnc(Nc4ccc(OCc5cccc(F)c5)c(Cl)c4)c3c2)o1 [Lapatinib] (partner 2 µM)
In short: as §1

Cell Line	relative viability (MK-2206 + Trametinib; first compound 0.01 µM)	relative viability (MK-2206 + Trametinib; first compound 0.03162 µM)	relative viability (MK-2206 + Trametinib; first compound 0.3162 µM)	relative viability (MK-2206 + Trametinib; first compound 1 µM)	relative viability (MK-2206 + Tozasertib; first compound 0.01 µM)	relative viability (MK-2206 + Tozasertib; first compound 0.03162 µM)	relative viability (MK-2206 + Tozasertib; first compound 0.3162 µM)	relative viability (MK-2206 + Tozasertib; first compound 1 µM)	relative viability (Pictilisib + Decitabine; first compound 0.02 µM)	relative viability (Pictilisib + Decitabine; first compound 0.06325 µM)	relative viability (Pictilisib + Decitabine; first compound 0.6325 µM)	relative viability (Pictilisib + Decitabine; first compound 2 µM)	relative viability (MK-2206 + Phenformin; first compound 0.01 µM)	relative viability (MK-2206 + Phenformin; first compound 0.03162 µM)	relative viability (MK-2206 + Phenformin; first compound 0.3162 µM)	relative viability (MK-2206 + Phenformin; first compound 1 µM)	relative viability (MK-2206 + Lapatinib; first compound 0.01 µM)	relative viability (MK-2206 + Lapatinib; first compound 0.03162 µM)	relative viability (MK-2206 + Lapatinib; first compound 0.3162 µM)	relative viability (MK-2206 + Lapatinib; first compound 1 µM)
NCI-H1648	0.491	0.497	0.591	0.497	0.508	0.689	0.657	0.504	0.528	0.469	0.367	0.319	–	–	–	–	–	–	–	–
NCI-H1793	0.4	0.433	0.298	0.391	0.349	0.345	0.302	0.284	0.436	0.518	0.343	0.239	0.386	0.47	0.206	0.218	0.616	0.742	0.745	0.617
NCI-H1299	–	–	–	–	–	–	–	–	–	–	–	–	–	–	–	–	0.963	0.946	1	1.02
LCLC-97TM1	0.195	0.205	0.191	0.206	0.26	0.382	0.194	0.223	0.244	0.238	0.169	0.18	0.431	0.48	0.315	0.384	1.67	1.35	0.697	0.52
NCI-H1915	0.3	0.315	0.282	0.293	0.486	0.431	0.432	0.394	0.259	0.251	0.259	0.283	0.351	0.384	0.379	0.367	0.954	0.984	0.978	1.02
NCI-H661	0.573	0.712	0.603	0.503	0.377	0.354	0.373	0.364	0.546	0.58	0.523	0.412	0.252	0.289	0.257	0.255	0.422	0.581	0.503	0.51
NCI-H2405	0.697	0.682	0.668	0.533	0.818	0.799	0.662	0.635	0.765	0.72	0.571	0.388	0.392	0.402	0.36	0.321	1.07	1.19	0.809	0.859
NCI-H2347	0.325	0.262	0.284	0.263	0.521	0.631	0.561	0.496	0.663	0.658	0.579	0.502	0.443	0.345	0.51	0.224	0.845	1.06	0.887	0.953
NCI-H1651	0.797	0.849	0.853	0.819	0.623	0.667	0.665	0.59	0.473	0.603	0.505	0.413	0.362	0.302	0.336	0.365	0.878	0.743	0.99	0.606
